Reference: article PMC3227451, “Structure-based development of novel sirtuin inhibitors” (Aging (Albany NY), 2011)
Like-named read-outs stand apart in the source and are kept apart here.

Legend:
Assay type in all cases: biochemical
Sirt2 = target: T1, Sirt2 (Homo sapiens, UniProt Q8IXJ6); assay: Fluor-de-Lys peptide deacetylation assay, Sirt2
T1 sequence (Q8IXJ6 34-356): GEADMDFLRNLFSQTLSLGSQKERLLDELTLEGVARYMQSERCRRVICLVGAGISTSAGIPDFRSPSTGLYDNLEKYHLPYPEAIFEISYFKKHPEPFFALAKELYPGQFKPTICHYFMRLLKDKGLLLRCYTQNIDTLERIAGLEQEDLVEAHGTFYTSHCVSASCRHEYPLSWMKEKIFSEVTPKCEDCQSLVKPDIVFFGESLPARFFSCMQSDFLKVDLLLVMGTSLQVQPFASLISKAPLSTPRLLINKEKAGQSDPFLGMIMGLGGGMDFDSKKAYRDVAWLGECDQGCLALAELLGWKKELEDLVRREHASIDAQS
Description: The Sirt2 construct was expressed in E. coli Rosetta2 cells (Merck) in LB/Ampicillin/Chloramphenicol medium. Cells were grown at 37 °C, and expression induced at an OD600 of 0.6-0.8 for 4 h with 0.5 mM IPTG. Harvested cells were resuspended in buffer A (50 mM Tris/HCl pH 7.8, 200 mM NaCl, 2 mM DTT), disrupted with a Sonifier, and cell debris removed by 40 min centrifugation at 4 °C, 18000 rpm in a HFA22.50 rotor. The supernatant was supplemented with 10 mM imidazole and incubated with Ni-NTA resin for 1 h at 4 °C. […] The protein was concentrated in an amicon unit (Millipore, Billerica, USA) and digested over night at 4 °C with TEV-protease. The protease was removed from cleaved Sirt2 by incubation with Ni-NTA resin for 1 h at 4 °C. The protein was concentrated, 1:5 diluted with 50 mM Tris/HCl, pH 7.8, and applied to a HiTrap Q anion exchange column (GE Healthcare) equilibrated with 50 mM Tris/HCl, pH 7.8, 50 mM NaCl, 2 mM DTT and eluted with a gradient (20 column volumes) to 50 mM Tris/HCl, pH 7.8, 1 M NaCl, 2 mM DTT. Sirt2 was then applied to a Superdex200 gel filtration column (GE Healthcare) equilibrated in 20 mM Tris/HCl, pH 7.8, 150 mM NaCl, 2 mM DTT. The eluted protein was analyzed by SDS-PAGE, re-concentrated, and shock-frozen in liquid nitrogen for storage at -80 °C.
(§1) The commercial Fluor-de-Lys (FdL) assay kits 1 and 2 (Biomol, Plymouth Meeting, USA) were used to test the deacetylase activity of the four Sirtuins. In both kits the substrate derived from p53 is composed of three amino acids, the acetyl lysine and a C-terminally attached fluorophor. For Sirt2 and 3, FdL-2 peptide (QPK(acetyl-K)) was used, and FdL-1 peptide (RHK(acetyl-K)) for Sirt5 and Sirt6. All tests were done with 0.1 mM of the respective FdL peptide and 0.5 mM NAD^+ as substrates.
(§2) NCI compound stocks were prepared by dissolving them in DMSO at a concentration of 5 mM. The initial screens with all 40 compounds contained 5 μl Sirtuin solution (Sirt2/3 0.1 mg/ml stock concentration; Sirt5/6 1 mg/ml), 1 μl of compound stock (resulting in a 100 μM end concentration), 15 μl FdL substrate, and assay buffer (supplied in the assay kit) to a total volume of 50 μl. As control reactions, peptide with either the compound (without Sirtuin) or with Sirtuin and DMSO instead of compound were measured. After starting the reactions by adding the FdL substrate, assays were incubated for 30 min at 37 °C. Subsequently, 50 μl of a 10 mg/ml trypsin stock (“Developer solution”) were added and the reactions were incubated for 45 min at room temperature. Fluorescence values were measured in a fluorometric plate reader with excitation at 360 nm and read out at 485 nm. Values were then corrected with the control reaction (same compound, but without Sirtuin).
(§3) All measurements shown are averages of duplicates (screen) or triplicates (dose-response curves), and representatives of at least two independent replications. Error bars indicate standard deviations.

Sirt3 = target: T2, Sirt3 (Homo sapiens, UniProt Q9NTG7); assay: Fluor-de-Lys peptide deacetylation assay, Sirt3
T2 construct: Sirt3 residues 114-399; His-tag with linker comprising a TEV protease cleavage site (N); made in house; host or cells: E. coli
T2 sequence (Q9NTG7 114-399): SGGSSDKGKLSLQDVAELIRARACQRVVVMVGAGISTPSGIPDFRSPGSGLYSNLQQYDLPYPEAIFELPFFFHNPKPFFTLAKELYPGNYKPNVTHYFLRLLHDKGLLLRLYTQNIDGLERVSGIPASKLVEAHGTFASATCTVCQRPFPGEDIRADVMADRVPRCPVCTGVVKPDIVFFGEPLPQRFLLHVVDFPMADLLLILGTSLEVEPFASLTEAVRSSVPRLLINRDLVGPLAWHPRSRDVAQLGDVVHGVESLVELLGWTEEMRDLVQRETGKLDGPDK
Description: (§4) Sirt3 was expressed in E. coli and purified via Ni-NTA and size exclusion chromatography as described elsewhere, and Sirt5 according to the protocol of Schuetz et al.. […] The protein was bound to the HiTrapQ column in buffer A and eluted in a gradient to buffer A supplemented with 400 mM KCl. Fractions were analyzed by SDS-PAGE, and the Sirt1 fractions were pooled and transferred into buffer A using a NAP column (GE Healthcare).
as §1, §2, §3

Sirt6 = target: T3, Sirt6 (Homo sapiens, UniProt Q8N6T7); assay: Fluor-de-Lys peptide deacetylation assay, Sirt6
T3 construct: Sirt6 residues 13-308; His-tag with linker comprising a TEV protease cleavage site (N, cleaved yes); made in house; host or cells: E. coli Rosetta2
Description: as §1, §2, §3

Sirt5 = target: T4, Sirt5 (Homo sapiens, UniProt Q9NXA8); assay: Fluor-de-Lys peptide deacetylation assay, Sirt5
T4 construct: Sirt5 residues 34-302; His-tag with linker comprising a TEV protease cleavage site (N); made in house
T4 sequence (Q9NXA8 34-302): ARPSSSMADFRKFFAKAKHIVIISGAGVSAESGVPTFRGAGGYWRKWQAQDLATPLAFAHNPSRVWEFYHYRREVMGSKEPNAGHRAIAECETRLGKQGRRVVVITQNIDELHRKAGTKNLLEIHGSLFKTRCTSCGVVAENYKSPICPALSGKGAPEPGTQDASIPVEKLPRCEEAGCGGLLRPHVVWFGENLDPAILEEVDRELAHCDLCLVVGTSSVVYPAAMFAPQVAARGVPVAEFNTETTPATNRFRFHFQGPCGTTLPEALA
Description: as §4, §1, §2, §3

[1] = 100 μM compound, 0.1 mM FdL-2 peptide, 0.5 mM NAD+
[2] = 100 μM compound, 0.1 mM FdL-1 peptide, 0.5 mM NAD+

T3 sequence (Q8N6T7 13-308): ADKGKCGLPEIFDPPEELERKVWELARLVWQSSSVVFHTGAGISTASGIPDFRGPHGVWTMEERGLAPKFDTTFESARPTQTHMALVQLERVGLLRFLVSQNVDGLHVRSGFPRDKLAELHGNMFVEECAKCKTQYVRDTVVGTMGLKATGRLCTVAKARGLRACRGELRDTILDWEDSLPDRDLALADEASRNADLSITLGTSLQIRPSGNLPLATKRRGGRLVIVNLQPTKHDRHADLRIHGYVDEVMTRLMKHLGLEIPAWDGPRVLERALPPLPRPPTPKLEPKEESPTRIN

Compound | Effect on the activity of Sirt2 (Sirt2; [1]) | Effect on the activity of Sirt3 (Sirt3; [1]) | Effect on the activity of Sirt6 (Sirt6; [2]) | Effect on the activity of Sirt5 (Sirt5; [2]) | Effect on the activity of Sirt2 (Sirt2) | Effect on the activity of Sirt3 (Sirt3) | Effect on the activity of Sirt6 (Sirt6) | Effect on the activity of Sirt5 (Sirt5)
O=C1c2cccc([N+](=O)[O-])c2C(=O)N1c1ncn[nH]1 [CSC25, 4-(hydroxy(oxido)amino)-2-(1H-1,2,4-triazol-5-yl)-1H-isoindole-1,3(2H)-dione] | --- (no such effect) | --- (no such effect) | --- (no such effect) | --- (no such effect) |  |  |  | 
7-(1-naphthyl)-7^5-dibenzo[a,j]phenazin-5-amine compound with 7-(1-naphthyl)-7^5-dibenzo[a,j]phenazine-5,9-diamine (1:1), (Sudan Red) [CSC1] | inhibition^a (significant inhibitory effects (>25% loss of activity)) | inhibition (significant inhibitory effects (>25% loss of activity)) | inhibition (significant inhibitory effects (>25% loss of activity)) | inhibition (significant inhibitory effects (>25% loss of activity)) |  |  |  | 
Cc1ccc(C2(C)CCC(=NN=C3CCC(C)(c4ccc(C)c(C)c4)c4cc(C)c(C)cc43)c3cc(C)c(C)cc32)cc1C (stereo not shown) [CSC26, 4-(3,4-dimethylphenyl)-4,6,7-trimethyl-3,4-dihydro-1(2H)-naphthalenone (4-(3,4-dimethylphenyl)-4,6,7-trimethyl-3,4-dihydro-1(2H)-naphthalenylidene)hydrazone] | --- (no such effect) | --- (no such effect) | --- (no such effect) | --- (no such effect) |  |  |  | 
O=C1c2ccccc2-c2ccc(/N=[N+](\[O-])c3ccc4c(c3)C(=O)c3ccccc3-4)cc21 [CSC3] | --- (no such effect) | --- (no such effect) | --- (no such effect) | --- (no such effect) |  |  |  | 
O=C1C=C(Nc2nc(O)cc(C(=O)O)n2)c2ccccc2C1=O [CSC30, 2-((3,4-dioxo-3,4-dihydro-1-naphthalenyl)amino)-6-hydroxy-4-pyrimidinecarboxylic acid] | --- (no such effect) | --- (no such effect) | --- (no such effect) | --- (no such effect) |  |  |  | 
N=C(c1ccc2ccccc2c1)c1ccccc1Cc1ccccc1 [CSC22, (2-benzylphenyl)(2-naphthyl)methanimine] | inhibition (significant inhibitory effects (>25% loss of activity)) | --- (no such effect) | --- (no such effect) | --- (no such effect) |  |  |  | 
O=C(C[n+]1ccc2ccccc2c1)c1ccc2ccc3ccccc3c2c1 [CSC10, 2-(2^5-isoquinolin-2-yl)-1-(3-phenanthryl)ethanone] |  |  |  |  | inhibition (key: inhibition: significant inhibitory effects (>25% loss of activity); ---: no such effect) | inhibition (key: inhibition: significant inhibitory effects (>25% loss of activity); ---: no such effect) | inhibition (key: inhibition: significant inhibitory effects (>25% loss of activity); ---: no such effect) | --- (key: inhibition: significant inhibitory effects (>25% loss of activity); ---: no such effect)
CC(C)c1ccc(C=C2C=C(c3ccc4ccccc4c3)OC2=O)cc1 [CSC9, 3-(4-isopropylbenzylidene)-5-(2-naphthyl)-2(3H)-furanone] | inhibition (significant inhibitory effects (>25% loss of activity)) | --- (no such effect) | --- (no such effect) | activation^c |  |  |  | 
O=S1(=O)CCN(c2ccccc2CC(c2c[nH]c3ccccc23)c2c[nH]c3ccccc23)CC1 [CSC11, 3-(2-(2-(1,1-dioxido-4-thiomorpholinyl)phenyl)-1-(1H-indol-3-yl)ethyl)-1H-indole] | --- (no such effect) | --- (no such effect) | --- (no such effect) | --- (no such effect) |  |  |  | 
O=C1c2ccccc2C(=O)c2c(NC(=O)c3ccc4c5c(ncnc35)-c3ccccc3C4=O)cccc21 [CSC36, N-(9,10-dioxo-9,10-dihydro-1-anthracenyl)-7-oxo-7H-benzo[e]perimidine-4-carboxamide, (Pigment Yellow 108)] | --- (no such effect) | --- (no such effect) | --- (no such effect) | --- (no such effect) |  |  |  | 
O=C(Nc1ccc(Nc2ccc3c(c2)C(=O)c2ccccc2C3=O)c2c1C(=O)c1ccccc1C2=O)c1ccccc1 [CSC17, N-(4-((9,10-dioxo-9,10-dihydro-2-anthracenyl)amino)-9,10-dioxo-9,10-dihydro-1-anthracenyl)benzamide, (Indanthrene Corinth RK)] | --- (no such effect) | --- (no such effect) | --- (no such effect) | --- (no such effect) |  |  |  | 
O=S(=O)(c1cccc(C(F)(F)F)c1)N1c2ccccc2-n2cccc2C1c1cccnc1 (stereo not shown) [CSC38, 4-(3-pyridinyl)-5-((3-(trifluoromethyl)phenyl)sulfonyl)-4,5-dihydropyrrolo[1,2-a]quinoxaline] | inhibition (significant inhibitory effects (>25% loss of activity)) | --- (no such effect) | activation | activation |  |  |  | 
O=C1C2C3c4ccccc4C(C2C(=O)N1c1ccc(OCc2ccccc2)cc1)[n+]1ccccc13 (stereo not shown) [CSC34] | inhibition (significant inhibitory effects (>25% loss of activity)) | --- (no such effect) | activation | --- (no such effect) |  |  |  | 
